US9187415B2, “Sulfonamides as HIV protease inhibitors” (Merck Canada Inc., priority 2010, dated 2015)
Like-named read-outs stand apart in the source and are kept apart here.

Columns and labels:
[1] = biological target: T1, HIV-1 protease (wild type) (Human immunodeficiency virus type 1 group M subtype B, UniProt P04585); assay: Protease Inhibition Assay (Pepcleave), inhibition of microbial expressed HIV protease; type: biochemical
T1 construct: made in house; host or cells: Escherichia coli
Procedure: Assay for Inhibition of Microbial Expressed HIV Protease
Inhibition studies of the reaction of the protease (which was expressed in Eschericia coli) with a peptide substrate [Val-Ser-Gln-Asn-(betanaphtyl)Ala-Pro-Ile-Val]. The inhibitor is first preincubated with the HIV-1 protease (wild type) enzyme in assay buffer (50 mM sodium acetate, pH 5.5, 100 mM NaCl, and 0.1% BSA) for 30 minutes at room temperature. Substrate is added to 400 micromolar in a total volume of 80 microliters containing 10 picomolar HIV-1 protease and the reaction is incubated for 1 hour at 30° C. The reaction is quenched with the addition of 120 microliters of 10% phosphoric acid. The product formation is determined after separation of product and substrate on a Zorbax Eclipse XDB-C18 column connected to an Agilent 1100 high performance liquid chromatography system with fluorescence detection (excitation 270 nanometer and emission 330 nanometer). Alternatively, the inhibitor is preincubated with enzyme and substrate as described above, but in a total volume of 20 microliters containing 20 picomolar HIV-1 protease and the reaction is incubated for 1 hour at 30° C. The reaction is quenched with the addition of 30 microliters of 1 micromolar indinavir (indinavir is also used as an internal standard), and the product formation is determined after separation of product and substrate on a Zorbax Eclipse XDB-C18 column connected to an API 4000 mass spectrometer (Applied Biosystems) with multiple reaction monitoring (transitions were 644.5/428.9 and 615.4/422.2 (M1/M3) for product and indinavir respectively). The extent of inhibition of the reaction is determined from the peak area of the products. HPLC of the products, independently synthesized, provided quantitation standards and confirmation of the product composition.
Protease Inhibition Assay (“Pepcleave”) data were collected based on the wild-type HIV-1 protease enzyme. The assay monitors the cleavage of a 8-mer peptide (VSQN[β-Nal]PIV) where the tyrosine at P1 position is replaced by β-Naphthyl-alanine. Upon cleavage of the peptide by HIV-1 protease, the product is separated from substrate by HPLC column and detected at Ex.=270 nm/Em=330 nm.

[2] = system: human immunodeficiency virus type 1; assay: Acute Infection Assay (Spread); type: cell-based, HIV-1
Source text: Acute Infection Assay (“Spread”) data were generated in 10% FBS, and according to the methods disclosed by J. P. Vacca et al, “L-735,524: An orally bioavailable human immunodeficiency virus type 1 protease inhibitor,” Proc. Nati. Acad. Sci. USA, Vol. 91, pp. 4096-4100 (April 1994).

[3] = wild-type HIV-1 protease, mean of at least two independent experiments, read-out: Pepcleave Enzyme inhibition IC50
[4] = Human immunodeficiency virus 1, 10% FBS, mean of at least two independent experiments, read-out: Spread IC95

**Q.** With `COC(=O)N[C@H](C(=O)Nc1ccccc1CC[C@@H](CO)N(CCC(C)C)S(=O)(=O)c1ccc(N)cc1)C(c1ccccc1)c1ccccc1` [Example 1, N-{2-[(3S)-3-{[(4-aminophenyl)sulfonyl](3-methylbutyl)amino}-4-hydroxybutyl]phenyl}-Nα-(methoxycarbonyl)-β-phenyl-L-phenylalaninamide] as the compound, how does the IC50 [1, 3] read?
**A.** The IC50 was 0.02 nM.

**Q.** What about the IC95 [2, 4] of the same compound?
**A.** Its IC95 is 74 nM.

**Q.** Which results are given for `COC(=O)N[C@H](C(=O)Nc1ccccc1CC[C@@H](CO)N(C(C)C)S(=O)(=O)c1ccc(N)cc1)C(c1ccccc1)c1ccccc1` [Example 2, N-{2-[(3S)-3-{[(4-aminophenyl)sulfonyl](propan-2-yl)amino}-4-hydroxybutyl]phenyl}-Nα-(methoxycarbonyl)-β-phenyl-L-phenylalaninamide]?
**A.** IC50 [1]: 1.2 nM; IC95 [2, 4]: 919 nM

**Q.** `COC(=O)N[C@H](C(=O)Nc1ccccc1CC[C@@H](CO)N(CC1CC1)S(=O)(=O)c1ccc(N)cc1)C(c1ccccc1)c1ccccc1` [Example 3, N-{2-[(3S)-3-{[(4-aminophenyl)sulfonyl](cyclopropylmethyl)amino}-4-hydroxybutyl]phenyl}-Nα-(methoxycarbonyl)-β-phenyl-L-phenylalaninamide] was tested. Which IC50 [1, 3] did it give?
**A.** The IC50 was 0.2 nM.

**Q.** What about the IC95 ([2]; Human immunodeficiency virus 1, read-out: Spread IC95) of the same compound?
**A.** Its IC95 is 307 nM.

**Q.** `COC(=O)N[C@H](C(=O)Nc1ccccc1CC[C@@H](CO)N(Cc1cnoc1)S(=O)(=O)c1ccc(N)cc1)C(c1ccccc1)c1ccccc1` [Example 4] was tested. Which IC50 [1] did it give?
**A.** The IC50 was 0.2 nM.

**Q.** And the IC95 [2, 4]?
**A.** Its IC95 is 838 nM.

**Q.** How did the IC50 [1] turn out when `COC(=O)N[C@H](C(=O)Nc1ccccc1CC[C@@H](CO)N(Cc1cncnc1C)S(=O)(=O)c1ccc(N)cc1)C(c1ccccc1)c1ccccc1` [Example 5, N-{2-[(3S)-3-{[(4-aminophenyl)sulfonyl][(4-methylpyrimidin-5-yl)methyl]amino}-4-hydroxybutyl]phenyl}-Nα-(methoxycarbonyl)-β-phenyl-L-phenylalaninamide] was run?
**A.** Its IC50 is 0.7 nM.

**Q.** And the IC95 [2, 4]?
**A.** The IC95 was 1190 nM.

**Q.** What does the source list for `COC(=O)N[C@H](C(=O)Nc1ccccc1CC[C@@H](CO)N(Cc1cn[nH]c1)S(=O)(=O)c1ccc(N)cc1)C(c1ccccc1)c1ccccc1` [Example 6, N-{2-[(3S)-3-{[(4-aminophenyl)sulfonyl](1H-pyrazol-4-ylmethyl)amino}-4-hydroxybutyl]phenyl}-Nα-(methoxycarbonyl)-β-phenyl-L-phenylalaninamide]?
**A.** IC50 [1]: 0.07 nM; IC95 [2, 4]: 2340 nM

**Q.** With `COC(=O)N[C@H](C(=O)Nc1ccccc1CC[C@@H](CO)N(CC(C)C)S(=O)(=O)c1ccc2ncsc2c1)C(c1ccccc1)c1ccccc1` [Example 7, N-(2-{(3S)-3-[(1,3-benzothiazol-6-ylsulfonyl)(2-methylpropyl)amino]-4-hydroxybutyl}phenyl)-Nα-(methoxycarbonyl)-β-phenyl-L-phenylalaninamide] as the compound, how does the IC50 [1, 3] read?
**A.** Its IC50 is 1.6 nM.

**Q.** `[2H]C([2H])([2H])C([2H])(C([2H])([2H])[2H])C([2H])([2H])N([C@H](CO)CCc1ccccc1NC(=O)[C@@H](NC(=O)OC)C(c1ccccc1)c1ccccc1)S(=O)(=O)c1ccc2ncsc2c1` [Example 8, N-(2-{(3S)-3-[(1,3-benzothiazol-6-ylsulfonyl)(2-methylpropyl-d9)amino]-4-hydroxybutyl}phenyl)-Nα-(methoxycarbonyl)-β-phenyl-L-phenylalaninamide] was tested. Which IC50 [1] did it give?
**A.** Its IC50 is 1.7 nM.

**Q.** And the IC95 [2, 4]?
**A.** The IC95 was 1550 nM.

**Q.** Which IC50 [1] does the source give for `COC(=O)N[C@H](C(=O)Nc1ccccc1CC[C@@H](CO)N(CCC(C)C)S(=O)(=O)c1ccc2ncsc2c1)C(c1ccccc1)c1ccccc1` [Example 9, N-(2-{(3S)-3-[(1,3-benzothiazol-6-ylsulfonyl)(3-methylbutyl)amino]-4-hydroxybutyl}phenyl)-Nα-(methoxycarbonyl)-β-phenyl-L-phenylalaninamide] here?
**A.** Its IC50 is 0.3 nM.

**Q.** And the IC95 [2, 4]?
**A.** Its IC95 is 957 nM.

**Q.** With `[2H]C([2H])([2H])C([2H])([2H])C([2H])([2H])N([C@H](CO)CCc1ccccc1NC(=O)[C@@H](NC(=O)OC)C(c1ccccc1)c1ccccc1)S(=O)(=O)c1ccc2ncsc2c1` [Example 10, N-(2-{(3S)-3-[(1,3-benzothiazol-6-ylsulfonyl)(propyl-d7)amino]-4-hydroxybutyl}phenyl)-Nα-(methoxycarbonyl)-β-phenyl-L-phenylalaninamide] as the compound, how does the IC50 [1] read?
**A.** The IC50 was 0.7 nM.

**Q.** What about the IC95 [2, 4] of the same compound?
**A.** Its IC95 is 1190 nM.

**Q.** How did the IC50 [1, 3] turn out when `COC(=O)N[C@@H](Cc1ccccc1Cl)C(=O)Nc1ccccc1CC[C@@H](CO)N(CCC(C)C)S(=O)(=O)c1ccc2ncsc2c1` [Example 16, N-(2-{(3S)-3-[(1,3-benzothiazol-6-ylsulfonyl)(3-methylbutyl)amino]-4-hydroxybutyl}phenyl)-2-chloro-Nα-(methoxycarbonyl)-L-phenylalaninamide] was run?
**A.** Its IC50 is 8.1 nM.

**Q.** Which IC50 [1, 3] does the source give for `COC(=O)N[C@@H](Cc1ccccc1Cl)C(=O)Nc1ccccc1CC[C@@H](CO)N(Cc1cn(C)nc1C)S(=O)(=O)c1ccc2ncsc2c1` [Example 17, N-{2-[(3S)-3-{(1,3-benzothiazol-6-ylsulfonyl)[(1,3-dimethyl-1H-pyrazol-4-yl)methyl]amino}-4-hydroxybutyl]phenyl}-2-chloro-Nα-(methoxycarbonyl)-L-phenylalaninamide] here?
**A.** The IC50 was 10 nM.

**Q.** `[2H]C([2H])(c1ccccc1NC(=O)[C@@H](NC(=O)OC)C(c1ccccc1)c1ccccc1)C([2H])([2H])[C@@H](CO)N(CC(C)C)S(=O)(=O)c1ccc2ncsc2c1` [Example 21, N-(2-{(3S)-3-[(1,3-benzothiazol-6-ylsulfonyl)(2-methylpropyl)amino]-1-d2-2-d2-4-hydroxybutyl}phenyl)-Nα-(methoxycarbonyl)-β-phenyl-L-phenylalaninamide] was tested. Which IC50 [1, 3] did it give?
**A.** The IC50 was 3.7 nM.

**Q.** For `[2H]C([2H])([2H])C([2H])(C([2H])([2H])[2H])C([2H])([2H])N([C@H](CO)C([2H])([2H])C([2H])([2H])c1ccccc1NC(=O)[C@@H](NC(=O)OC)C(c1ccccc1)c1ccccc1)S(=O)(=O)c1ccc2ncsc2c1` [Example 22, N-(2-{(3S)-3-[(1,3-benzothiazol-6-ylsulfonyl)(2-methylpropyl-d7)amino]-1-d2-2-d2-4-hydroxybutyl}phenyl)-Nα-(methoxycarbonyl)-β-phenyl-L-phenylalaninamide], which IC50 [1, 3] is on record?
**A.** The IC50 was 1.7 nM.

**Q.** With `[2H]C([2H])([2H])C([2H])([2H])N([C@H](CO)Cc1cccc(NC(=O)[C@@H](NC(=O)OC)C(c2ccccc2)c2ccccc2)c1)S(=O)(=O)c1ccc(N)cc1` [Example 33, N-{3-[(2S)-2-{[(4-aminophenyl)sulfonyl](ethyl-d5)amino}-3-hydroxypropyl]phenyl}-Nα-(methoxycarbonyl)-β-phenyl-L-phenylalaninamide] as the compound, how does the IC50 [1, 3] read?
**A.** The IC50 was 50.2 nM.

**Q.** For `COC(=O)N[C@H](C(=O)Nc1cccc(C[C@@H](CO)N(C(C)C)S(=O)(=O)c2ccc(N)cc2)c1)C(c1ccccc1)c1ccccc1` [Example 34, N-{3-[(2S)-2-{[(4-aminophenyl)sulfonyl](propan-2-yl)amino}-3-hydroxypropyl)phenyl}-Nα-(methoxycarbonyl)-β-phenyl-L-phenylalaninamide], which IC50 [1, 3] is on record?
**A.** The IC50 was 41.6 nM.

**Q.** Which IC50 [1, 3] does the source give for `COC(=O)N[C@H](C(=O)Nc1cccc(C[C@@H](CO)N(C(C)C)S(=O)(=O)c2ccc(CO)cc2)c1)C(c1ccccc1)c1ccccc1` [Example 35, N-(3-{(2S)-3-hydroxy-2[{[4-(hydroxymethyl)phenyl]sulfonyl}(propan-2-yl)amino]propyl}phenyl)-Nα-(methoxycarbonyl)-β-phenyl-L-phenylalaninamide] here?
**A.** Its IC50 is 18.9 nM.
